Experimental data reported in patent US8093028B2, “Engineered glycosyltransferases with expanded substrate specificity” (Wisconsin Alumni Research Foundation, priority 2007, dated 2012).
Read-outs that look alike come from different tables or passages of the source.

How the values were obtained:
[1] = target: T1, OleD P67T (Streptomyces antibioticus, UniProt Q53685, P55A/P67T/R82V/R83E/T84P); type: biochemical; conditions: Table 3, 4-Me-umb (4) as acceptor, end point assay
T1 construct: made in house; host or cells: E. coli (site-directed mutant of pET28/OleD)
Description: (§1) Reactions were carried out as described above with the following exceptions. The total volume was 50 μl and the acceptor FIG. 1: 4 was at 50 μM and the NDP-sugar at ˜500 μM. The NDP-sugars were used directly from RmlA-catalyzed reactions. […] Reactions were incubated at 25° C. for 3 h.
(§2) The total volume was 50 μl and the acceptor FIG. 1: 4 or FIG. 1: 1 was at 50 μM and the NDP-sugar at ˜500 μM. The NDP-sugars were used directly from RmlA-catalyzed reactions. […] Reactions were incubated at 25° C. for 3 h.
(§3) For activity toward FIG. 1: 4, aliquots (25 μl) were quenched with 25 μl of an 8:1 mixture of ice-cold MeOH/HCl, and centrifuged at 14,000 rpm for 10 min. […] HPLC peak areas were integrated, and the product concentration calculated as a percent of the total peak area. All products were characterized by LC-MS. Mass spectra were obtained using electrospray ionization on an Agilent 1100 HPLC-MSD SL quadrapole mass spectrometer connected to a UV/Vis diode array detector.

[2] = target: T2, OleD A242V (Streptomyces antibioticus, UniProt Q53685, A242V/P55A/R82V/R83E/T84P); type: biochemical; conditions: Table 3, 4-Me-umb (4) as acceptor, end point assay
T2 construct: made in house; host or cells: E. coli BL21(DE3)pLysS (error-prone PCR clone in pET28a)
Description: as §1, §2, §3

[3] = target: T3, WT OleD (Streptomyces antibioticus, UniProt Q53685, P55A/R82V/R83E/T84P); type: biochemical; conditions: for Conversion rates (%), WT: Table 3, 4-Me-umb (4) as acceptor, end point assay; for Conversion Rate (%), WT: Table 2, acceptor 4 at 50 μM, NDP-sugar ~500 μM, 25° C., 3 h
T3 construct: made in house; host or cells: E. coli BL21(DE3)pLysS, plasmid pET28/OleD
Description: as §1, §2, §3

[4] = target: T4, OleD S132F (Streptomyces antibioticus, UniProt Q53685, P55A/R82V/R83E/S132F/T84P); type: biochemical; conditions: Table 3, 4-Me-umb (4) as acceptor, end point assay
T4 construct: made in house; host or cells: E. coli (site-directed mutant of pET28/OleD)
Description: as §1, §2, §3

[5] = target: T5, OleD P67T/S132F/A242V (Streptomyces antibioticus, UniProt Q53685, A242V/P67T/S132F); type: biochemical; conditions: for Conversion rates (%), P67T/S132F/A242V: Table 3, 4-Me-umb (4) as acceptor, end point assay; for Conversion Rate (%), P67T/S132F/A242V: Table 2, acceptor 4 at 50 μM, NDP-sugar ~500 μM, 25° C., 3 h
T5 construct: made in house; host or cells: E. coli (site-directed mutant of pET28/OleD)
Description: as §1, §2, §3

[6] = system: ASP OleD (A242V/S132F/P67T); assay: Kinetic parameters with model acceptors phenol, thiophenol, aniline; type: biochemical, Streptomyces antibioticus; conditions: UDP-Glc donor
Description: To confirm O—, S- and N-glucoside formation, iterative glycosylation, and determine anomeric stereoselectivity, a select set of OleD-catalyzed reactions with simple aromatic model acceptors phenol (FIG. 17: 8), thiophenol (FIG. 17: 6), and aniline (FIG. 17: 34) were studied in depth.

[7] = system: CC(C)=CCc1cc(C(=O)Nc2c(O)c3ccc(O)c(C)c3oc2=O)ccc1O; assay: purified protein, by the assay type; conditions: other: named substrate varied, other substrate fixed at 5 mM; pH 8.0
[8] = target: T5, OleD P67T/S132F/A242V; type: biochemical; conditions: novobiocic acid (FIG. 9: 1) as acceptor
Description: Biotechnol. […] Reactions were incubated at 25° C. for 3 h. […] Supernatants were analyzed by analytical reverse-phase HPLC as described above. HPLC peak areas were integrated, and the product concentration calculated as a percent of the total peak area. All products were characterized by LC-MS.

| Compound | Conversion rates (%), P67T [1] | Conversion rates (%), A242V [2] | Conversion rates (%), WT [3] | Conversion rates (%), S132F [4] | Conversion rates (%), P67T/S132F/A242V [5] | catalytic efficiency (kcat/Km) improvement of ASP versus WT OleD [6] | Conversion Rate (%), P67T/S132F/A242V [5] | also measured |
| --- | --- | --- | --- | --- | --- | --- | --- | --- |
| UDP-4-deoxy-glc [UDP-4-deoxy-glc (12)] | 0% | 0% | 0% | 0% | 22% | – | – | – |
| Nc1ccccc1 [aniline (FIG. 17: 34), aniline] | – | – | – | – | – | 5 fold | – | – |
| Oc1ccccc1 [phenol (FIG. 17; 8), phenol] | – | – | – | – | – | 25 fold | – | – |
| Sc1ccccc1 [thiophenol (FIG. 17: 6), thiophenol] | – | – | – | – | – | 4 fold | – | – |
| O=c1ccn([C@@H]2O[C@H](COP(=O)(O)OP(=O)(O)O[C@H]3OC[C@@H](O)[C@H](O)[C@H]3O)[C@@H](O)[C@H]2O)c(=O)[nH]1 [UDP-xylose (7), UDP-xylose] | 2% | 2% | – | 1.5% | 31% | – | 31% | – |
| OleD P67T/I112K/A242V (Streptomyces antibioticus; A242V/I112K/P67T) | – | – | – | – | – | – | – | Km [7]: 800 µM; kcat [7]: 0.0855 s⁻¹ |
| UDP-6-deoxy-glucose [UDP-6-deoxy-glc (8)] | 11% | 6% | 6% | 10% | 85% | – | 85% | Conversion rates (%), P67T ([1]; listed as FIG. 3: 8): ≤ 12%; Conversion rates (%), A242V ([2]; listed as FIG. 3: 8): ≤ 12%; Conversion Rate (%), WT [3]: 6%; Conversion rates (%), S132F ([4]; listed as FIG. 3: 8): ≤ 12% |
| [N-]=[N+]=NCC1OC(OP(=O)(O)OP(=O)(O)OC[C@H]2O[C@@H](n3ccc(=O)[nH]c3=O)[C@H](O)[C@@H]2O)C(O)C(O)C1O (stereo partly drawn) [UDP-6-azido-glc (11), UDP-6-azido-glucose] | 2% | 2% | 0% | 1% | 41% | – | – | donor acceptance, P67T/S132F/A242V [8]: albeit poorly |
| UDP-6-thio-glucose [FIG. 3: 9] | – | – | – | – | – | – | 47% | Conversion Rate (%), WT ([3]; listed as 9): 1% |
